Consider eleven compounds from ChEMBL document CHEMBL1201862, “PubChem BioAssay data set” (2004).

SMILES strings stand for the structures. Structures can show the parent of a compound that is named as a salt. Calls of active or inactive are those of the source.

The nature of experiment [1]: HIV-1 Vif–A3G interaction blockers – biochemical, TR-FRET, GST-Vif 1-94, biotin-A3G peptide, dose response retest, primary screen (AID 1117319).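 Further: TR-FRET signal of purified GST-Vif binding a biotinylated A3G peptide; inhibitors lower the FRET signal by blocking Vif and A3G binding.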 Type of experiment: functional. (In TR-FRET formats the signal depends on donor and acceptor labels being close together.)
Another experiment deals with Cytochrome P450 3A4 (Homo sapiens, UniProt P08684).
Cytochrome P450 3A4, sequence (P08684 whole entry): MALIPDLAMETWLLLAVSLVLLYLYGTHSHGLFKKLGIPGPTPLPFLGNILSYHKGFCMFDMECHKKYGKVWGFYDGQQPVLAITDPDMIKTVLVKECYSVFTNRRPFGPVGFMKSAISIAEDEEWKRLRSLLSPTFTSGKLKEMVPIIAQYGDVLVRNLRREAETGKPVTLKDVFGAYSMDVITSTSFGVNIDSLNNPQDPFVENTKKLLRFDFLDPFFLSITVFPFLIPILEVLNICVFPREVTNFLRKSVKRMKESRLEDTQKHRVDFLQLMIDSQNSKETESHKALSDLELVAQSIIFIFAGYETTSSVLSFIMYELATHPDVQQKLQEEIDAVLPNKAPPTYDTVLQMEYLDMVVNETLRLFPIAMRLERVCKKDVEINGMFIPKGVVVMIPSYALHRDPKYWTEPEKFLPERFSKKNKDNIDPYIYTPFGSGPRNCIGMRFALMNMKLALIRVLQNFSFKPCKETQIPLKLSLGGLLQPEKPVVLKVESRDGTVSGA
For another experiment, the target named is T1, Leucine aminopeptidase (Plasmodium falciparum 3D7, UniProt Q8IL11).
T1 sequence (Q8IL11 whole entry): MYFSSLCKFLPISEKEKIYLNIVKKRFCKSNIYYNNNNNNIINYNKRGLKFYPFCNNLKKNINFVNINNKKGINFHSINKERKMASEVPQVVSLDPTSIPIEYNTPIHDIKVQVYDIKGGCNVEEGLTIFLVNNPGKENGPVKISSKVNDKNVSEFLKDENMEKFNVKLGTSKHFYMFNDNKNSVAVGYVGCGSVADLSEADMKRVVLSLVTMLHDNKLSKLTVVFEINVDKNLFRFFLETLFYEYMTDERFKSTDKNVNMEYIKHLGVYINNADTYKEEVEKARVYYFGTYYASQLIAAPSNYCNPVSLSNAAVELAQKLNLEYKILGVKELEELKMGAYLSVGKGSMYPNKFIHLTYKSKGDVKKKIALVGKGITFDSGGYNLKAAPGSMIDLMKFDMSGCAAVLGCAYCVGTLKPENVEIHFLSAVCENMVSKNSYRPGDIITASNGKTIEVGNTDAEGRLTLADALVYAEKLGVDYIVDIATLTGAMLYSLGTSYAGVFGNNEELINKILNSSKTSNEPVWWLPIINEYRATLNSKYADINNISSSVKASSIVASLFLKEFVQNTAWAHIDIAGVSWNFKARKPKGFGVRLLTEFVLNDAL
In words: P. falciparum M17LAP inhibitors, primary screen, biochemical, fluorogenic H-Leu-NHMec substrate, 1536-well (AID 1619). It is filed as functional.

The target in a further experiment is T2, Cytochrome P450 1A2 (Homo sapiens, UniProt P05177).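 Further: PubChem cytochrome P450 panel assay, CYP1A2 panel member.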
T2 sequence (P05177 whole entry): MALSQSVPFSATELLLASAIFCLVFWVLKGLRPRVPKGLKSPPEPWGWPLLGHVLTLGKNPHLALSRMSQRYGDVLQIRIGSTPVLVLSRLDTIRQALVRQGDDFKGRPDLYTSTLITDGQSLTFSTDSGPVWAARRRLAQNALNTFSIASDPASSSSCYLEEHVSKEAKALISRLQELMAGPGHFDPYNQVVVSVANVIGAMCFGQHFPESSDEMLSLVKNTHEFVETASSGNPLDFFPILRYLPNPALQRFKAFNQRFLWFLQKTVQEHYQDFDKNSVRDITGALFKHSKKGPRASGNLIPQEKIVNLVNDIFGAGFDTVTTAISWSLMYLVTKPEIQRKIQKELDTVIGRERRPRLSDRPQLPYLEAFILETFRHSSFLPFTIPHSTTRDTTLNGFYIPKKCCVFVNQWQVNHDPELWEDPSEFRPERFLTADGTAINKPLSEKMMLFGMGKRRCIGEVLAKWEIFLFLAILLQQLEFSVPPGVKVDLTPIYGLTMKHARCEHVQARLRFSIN

A short description of experiment [2]: IC50 of Artemis nuclease activity blockers – biochemical, fluorescence intensity, dose response (AID 720701).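 Further: Artemis endonuclease enzyme.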 It is filed as functional.
Experiment [3] can be described thus: OVCAR8 cell viability loss – plate reader, dry powder samples, PAX8 project, dose response (AID 743197). It is filed as functional, cell-based. As to conditions: OVCAR-8.
The nature of experiment [4]: OVCAR-3 cell viability loss – plate reader, dry powder samples, PAX8 inhibitor project, dose response (AID 743044). Type of experiment: functional, cell-based.
The next experiment concerns the target Paired box protein Pax-8 (Homo sapiens, UniProt Q06710). In words: PAX8 transcriptional activity inhibition in RMG-I – RMG-I cells, luciferase, cherry-pick, dose response (AID 687027).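 Further: luciferase reporter driven by Pax8 target thyroperoxidase promoter measured by SteadyGlo luminescence.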 Type of experiment: functional, cell-based.
Experiment [5] in a line: reduced cellular PGC1a acetyl-lysine signal – cell-based, cherry-picked samples, dose response (AID 720514).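 Further: potency may reflect raised or lowered acetylation signal.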 Type of experiment: functional.
Experiment [6] in a line: general cell-killing toxicity readout – plate reader, dry powder samples, cytotoxicity control for PAX8 inhibitor project, dose response (AID 743021). It is filed as functional, cell-based.
A short description of experiment [7]: toxicity toward immortalized ovarian surface epithelium – cell-based, plate reader, dry powder samples, cytotoxicity control for PAX8 inhibitor project, dose response (AID 743045). Type of experiment: functional.
Experiment [8] can be described thus: Dd2 parasite growth inhibition in erythrocytes – SYBR Green, dry powder samples, set 9, dose response (AID 1159568). Type of experiment: functional, cell-based.
The nature of experiment [9]: IGROV1 cell killing – plate reader, dry powder samples, PAX8 inhibitor project, dose response (AID 743043). Conditions: IGROV-1. Type of experiment: functional, cell-based.
Experiment [10] can be described thus: Potency on glucagon-like peptide 1 release, dose-response in NCI-H716 cell line, half maximal inhibitory concentration (AID 1117344). It is filed as functional, cell-based.
Experiment [11] can be described thus: glucagon-like peptide-1 release potency in STC-1, concentration-response, half-maximal inhibitory concentration in the STC-1 line (AID 1117345). Type of experiment: functional, cell-based.
The nature of experiment [12]: viability loss in A549 lung cells – cell-based, 24 h, CellTiter-Glo luminescence, cherry-picks, cytotoxicity control, dose response (AID 1053115). It is filed as functional. Conditions: A549, 24 h. (In general: Cellular ATP, detected with luciferase, serves as a proxy for viable cell number.)
Experiment [13] is described as follows: inhibitors of non-replicating M. tuberculosis, dose response, luciferase, dry powder (AID 651619). Type of experiment: functional. Conditions: Mycobacterium tuberculosis.
A short description of experiment [14]: HepG2 hepatoma cell viability loss – plate reader, dry powder, cytotoxicity control, dose response (AID 651947). Type of experiment: functional, cell-based.
Experiment [15] is described as follows: inhibitors of non-replicating M. tuberculosis, dose response, luciferase, dry powder (AID 651620). As to conditions: Mycobacterium tuberculosis. Type of experiment: functional.
The target of experiment [16] is Metabotropic glutamate receptor 7 (Homo sapiens, UniProt Q14831). The experiment in a line: potentiation of glutamate EC20 at mGlu7 – cell-based, calcium mobilization, Galpha15, dose response (AID 743384). Type of experiment: functional. On the technique in general: Calcium assays in cells follow changes in intracellular calcium, usually with a dye or a luminescent sensor.
Metabotropic glutamate receptor 7, sequence (Q14831 whole entry): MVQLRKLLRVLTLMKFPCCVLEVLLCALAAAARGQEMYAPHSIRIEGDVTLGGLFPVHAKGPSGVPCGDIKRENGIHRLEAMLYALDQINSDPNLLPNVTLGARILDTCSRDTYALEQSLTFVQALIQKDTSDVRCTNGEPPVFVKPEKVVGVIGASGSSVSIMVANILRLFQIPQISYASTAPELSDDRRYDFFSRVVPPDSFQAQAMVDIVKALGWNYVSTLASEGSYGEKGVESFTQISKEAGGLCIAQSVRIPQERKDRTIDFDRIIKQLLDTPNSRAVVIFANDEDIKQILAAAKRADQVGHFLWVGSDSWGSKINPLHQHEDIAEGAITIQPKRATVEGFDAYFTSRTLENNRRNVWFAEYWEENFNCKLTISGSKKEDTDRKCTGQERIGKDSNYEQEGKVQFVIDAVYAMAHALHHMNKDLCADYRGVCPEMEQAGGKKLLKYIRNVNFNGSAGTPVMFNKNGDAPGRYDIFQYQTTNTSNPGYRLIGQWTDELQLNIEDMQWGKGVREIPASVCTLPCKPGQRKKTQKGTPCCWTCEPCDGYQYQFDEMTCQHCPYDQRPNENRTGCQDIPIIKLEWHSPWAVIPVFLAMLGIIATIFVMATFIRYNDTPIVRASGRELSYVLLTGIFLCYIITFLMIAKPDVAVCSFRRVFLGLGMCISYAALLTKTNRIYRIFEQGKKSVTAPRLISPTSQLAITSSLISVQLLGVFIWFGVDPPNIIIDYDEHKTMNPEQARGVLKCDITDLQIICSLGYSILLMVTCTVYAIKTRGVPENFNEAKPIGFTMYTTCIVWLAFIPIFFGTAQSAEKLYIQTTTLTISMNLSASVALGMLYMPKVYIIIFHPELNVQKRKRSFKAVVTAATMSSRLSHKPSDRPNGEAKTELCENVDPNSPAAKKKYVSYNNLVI

Experiment [17] is described as follows: cytotoxicity in MITF-independent A375 cells – cell-based, CellTiter-Glo luminescence, dry powder, set 4, counter-screen for MITF inhibitor project, dose response (AID 624364).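 Further: A375 melanoma cells are MITF independent so this is a counter screen.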 It is filed as functional. Conditions: A-375.
A short description of experiment [18]: viability loss in MITF-independent A375 cells – cell-based, CellTiter-Glo luminescence, dry powder, set 2, counter-screen for MITF inhibitor project, dose response (AID 624489).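 Further: actives are compounds lowering A375 viability meaning general cytotoxicity.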 It is filed as functional. As to conditions: A-375.
Experiment [19] in a line: cytotoxicity toward HT-29 cells – cell-based, CellTiter-Glo luminescence, IC50, dose response (AID 1117330). It is filed as functional.
A short description of experiment [20]: cytotoxicity toward Colo320 cells – cell-based, CellTiter-Glo luminescence, IC50, dose response (AID 1117334). Type of experiment: functional. Conditions: COLO 320.
Experiment [21] in a line: CellTiter-Glo luminescence survival assay, SW480 colon tumor line, concentration-response curve, half-maximal inhibitory concentration (AID 1117338). It is filed as functional.
Experiment [22] can be described thus: SNU-C1 cell viability reduction, dose response, CellTiter-Glo luminescence (AID 1117323). It is filed as functional, cell-based.
A short description of experiment [23]: RKO cell viability reduction, dose response, CellTiter-Glo luminescence (AID 1117322). Type of experiment: functional.
Experiment [24] can be described thus: Reduced DLD-1 viability, concentration-response, CellTiter-Glo luminescence (AID 1117352). It is filed as functional.
Experiment [25] is described as follows: cytotoxicity toward HCT116 cells – cell-based, CellTiter-Glo luminescence, IC50, dose response (AID 1117332). It is filed as functional. Conditions: HCT-116.
Experiment [26] is described as follows: rise of 2N DNA cells, HeLa – IC50, dose response (AID 1117349). Type of experiment: functional, cell-based.
Experiment [27] is described as follows: rise of 4N DNA cells, HeLa – IC50, dose response (AID 1117351). It is filed as functional, cell-based.
The nature of experiment [28]: HCT116 cell viability decrease, GSK3B pretreatment – CellTiter-Glo, IC50, dose response (AID 1117339). Conditions: HCT-116. It is filed as functional.
The next experiment can be described thus: cells. Conditions: INS-1E. It is filed as functional, cell-based.
The nature of experiment [29]: IC50 of insulin release inhibition, rat insulinoma INS-1E line, 5 mM glucose, cell-based (AID 1117331). It is filed as functional.

Paired box protein Pax-8, sequence (Q06710 whole entry): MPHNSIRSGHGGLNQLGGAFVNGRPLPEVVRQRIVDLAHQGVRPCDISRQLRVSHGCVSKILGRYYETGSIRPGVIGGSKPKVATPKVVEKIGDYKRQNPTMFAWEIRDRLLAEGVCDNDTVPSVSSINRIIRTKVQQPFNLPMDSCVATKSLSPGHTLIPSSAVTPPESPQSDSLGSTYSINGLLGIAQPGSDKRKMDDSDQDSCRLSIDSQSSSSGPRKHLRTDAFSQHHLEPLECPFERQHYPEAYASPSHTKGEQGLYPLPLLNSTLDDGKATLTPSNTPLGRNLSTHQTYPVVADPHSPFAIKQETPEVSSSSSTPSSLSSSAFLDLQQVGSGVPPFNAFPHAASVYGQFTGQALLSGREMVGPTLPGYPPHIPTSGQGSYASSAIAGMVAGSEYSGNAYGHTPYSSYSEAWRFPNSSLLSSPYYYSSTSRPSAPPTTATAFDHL

Take `Cc1cccc(N2CCN(CC(=O)NCC3CCCCC3)CC2)c1C`: the IC50 (usually the concentration needed to halve the response being measured) in experiment [1] is > 100 µM (active).

As to `Cc1sc(NC(=O)C2C3CCC(O3)C2C(=O)O)c(C(=O)OC(C)C)c1-c1ccc(Cl)cc1` (stereo not given), the AC50 (in general, the midpoint of the concentration-response curve, whichever way the signal moves) was 15.8 µM (inconclusive) at Cytochrome P450 3A4 and 22.4 µM (inconclusive) on Cytochrome P450 1A2. For the same compound, the 50% inhibitory concentration (IC50) at Leucine aminopeptidase is 10.1 µM (active); in [2] it was > 20 µM (inactive).

`Fc1cccc(CN2C[C@@H]3N[C@H](C2)[C@@H]3c2ccc(-c3cccc(F)c3)cc2)c1`: the AC50 in experiment [3] was 27 µM (active); in [4], 22.1 µM (active); at Paired box protein Pax-8, 23.4 µM (active); in experiment [5] it was 4.43 µM (active); in experiment [6], 19.5 µM (active); in [7], 27.6 µM (active).

On to `C[C@@H]1CN([C@@H](C)CO)C(=O)Cc2cc(NC(=O)C3CCCCC3)ccc2O[C@H]1CN(C)Cc1ccc(Cl)c(Cl)c1`, for which the concentration at half-maximal activity (AC50) was 2.76 µM (active) in experiment [8], 5.39 µM (active) at Paired box protein Pax-8 and 28.6 µM (active) in [9].

Take `Cc1cc(OCCOCC[N+](C)(C)Cc2ccccc2)ccc1C(C)(C)CC(C)(C)C`: the IC50 is 12 µM (inactive) in [10] and > 40 µM (inactive) in experiment [11].

As to `C[C@@H]1CCCCO[C@@H](CN(C)S(=O)(=O)c2ccc(Cl)cc2)[C@@H](C)CN([C@@H](C)CO)C(=O)c2cc(NC(=O)Nc3ccc(F)cc3)ccc2O1`, the AC50 in experiment [12] was 51.4 µM (active).

Regarding `Fc1ccc(Cn2cc(CSc3nnc(-c4ccc(F)cc4)o3)nn2)cc1`, the concentration for an effect of 90% (IC90) in experiment [13] and in experiment [15] was 1 µM (active) each time. For the same compound, in experiment [14], the half-maximal activity concentration (AC50) was 30.8 µM (active).

On to `CC(=O)Nc1ccc(SCC(=O)c2cc(C)n(-c3nc(C)cs3)c2C)cc1`, for which the concentration for a half-maximal effect (EC50) – broadly, the concentration needed to bring the measured effect to its halfway point – in experiment [16] is 10 µM (active).

Consider `COc1ccc(C(=O)NC2=C(c3ccc(OC)cc3)C(=O)c3ccccc3C2=O)cc1`, for which the AC50 was 20.1 µM (active) in experiment [17] and 13.3 µM (active) in experiment [18].

For the compound `CCCCC(CC)CNC(=N)NC(=N)NCCCCCCNC(=N)NC(=N)NCC(CC)CCCC` (stereo not given) [ALEXIDINE DIHYDROCHLORIDE], the IC50 in experiment [19] was 30.2 nM (active); in experiment [20] it was 4.1 nM (active); in [21] it was 333 nM (active); in experiment [22] it was 94.1 nM (active); in [23], 223 nM (active); in experiment [24], 19.7 nM (active). Further, the IC50 in [25] was 710 nM (active); in [26] it was > 10 µM (inactive); in experiment [27], > 10 µM (inactive); in experiment [28], 396 nM (active).

`CC(C)[C@H]1CC[C@H](C(=O)N[C@H](Cc2ccccc2)C(=O)O)CC1` [NATEGLINIDE]: the IC50 in “cells” was > 33.3 µM (inactive); in experiment [29], 7.07 µM (inactive).
